Laboratory results published in patent US20230072421A1, “TARGETED RADIOPHARMACEUTICALS FOR THE DIAGNOSIS AND TREATMENT OF PROSTATE CANCER” (Bayer AS, priority 2019, published 2023).

How the values were obtained:
[1] = Biodistribution study in LNCaP tumor-bearing mice (Th227 counted in organs); type: in vivo, SCID mice; settings: 1500 kBq/kg
Method in brief: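 Th227 in excised, weighed organs was counted with a Germanium detector at predetermined time points (n=3 mice each). This followed one i.v. injection of radiolabelled compound into testosterone-supplemented SCID mice carrying LNCaP xenografts in Matrigel, dosed once tumors reached ~50 mm^2.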

[2] = system: LNCaP human prostate cancer cells; assay: LNCaP xenograft efficacy study (T/C tumor area); type: in vivo, SCID mice
Method in brief: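 SCID mice with testosterone pellet bearing s.c. flank LNCaP xenografts (5×10^6 cells in Matrigel) were treated i.v. with a defined radioactive dose once tumors reached 35-50 mm^2 (n=10/group). Tumor area (caliper, longest diameter × perpendicular) measured 2-3× weekly; T/C ratio calculated from tumor areas when vehicle group closed.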

**Q.** Which Th-227 in Blood ([1]; 0.25 h) does the source give for `O=C([O-])CN1CCN(CC(=O)[O-])CCN(CC(=O)NCC2CCC(C(=O)NC(Cc3ccc4ccccc4c3)C(=O)NCCCCC(NC(=O)NC(CCC(=O)O)C(=O)O)C(=O)O)CC2)CCN(CC(=O)[O-])CC1.[227Th+4]` [Example 1-B-D-227Th, [^227Th]Thorium-(3S,10S,14R)-3-[(naphthalen-2-yl)methyl]-1,4,12-trioxo-1-{(1r,4S)-4-[(2-{4,7,10-tris[(carboxy-kappaO)methyl]-1,4,7,10-tetraazacyclododecan-1-yl-kappa^4N^1,N^4,N^7,N^10}acetamido)methyl]cyclohexyl}-2,5,11,13-tetraazahexadecane-10,14,16-tricarboxylate] here?
**A.** Its Th-227 in Blood is 4.97% ID Th-227/g organ.

**Q.** And the Th-227 in Liver ([1]; 0.25 h)?
**A.** Its Th-227 in Liver is 1.25% ID Th-227/g organ.

**Q.** And the Th-227 in Spleen ([1]; 0.25 h)?
**A.** Its Th-227 in Spleen is 1.91% ID Th-227/g organ.

**Q.** What about the Th-227 in Tumor ([1]; 0.25 h) of the same molecule?
**A.** Its Th-227 in Tumor is 2.08% ID Th-227/g organ.

**Q.** What about the Th-227 in bone ([1]; 0.25 h) of the same molecule?
**A.** Its Th-227 in bone is 1.70% ID Th-227/g organ.

**Q.** And the Th-227 in brain ([1]; 0.25 h)?
**A.** Its Th-227 in brain is 0.18% ID Th-227/g organ.

**Q.** And the Th-227 in kidney ([1]; 0.25 h)?
**A.** Its Th-227 in kidney is 10.76% ID Th-227/g organ.

**Q.** And the “Th-227 in large intestine” value ([1]; 0.25 h)?
**A.** Its value is 0.75% ID Th-227/g organ.

**Q.** And the Th-227 in lung ([1]; 0.25 h)?
**A.** The Th-227 in lung was 3.67% ID Th-227/g organ.

**Q.** What about the Th-227 in muscle ([1]; 0.25 h) of the same molecule?
**A.** Its Th-227 in muscle is 0.88% ID Th-227/g organ.

**Q.** And the Th-227 in prostate ([1]; 0.25 h)?
**A.** The Th-227 in prostate was 6.26% ID Th-227/g organ.

**Q.** And the “Th-227 in salivary glands” value ([1]; 0.25 h)?
**A.** Its value is 1.61% ID Th-227/g organ.

**Q.** And the “Th-227 in small intestine” value ([1]; 0.25 h)?
**A.** The value was 1.21% ID Th-227/g organ.

**Q.** And the Th-227 in Blood ([1]; 1 hr)?
**A.** The Th-227 in Blood was 1.04% ID Th-227/g organ.

**Q.** What about the Th-227 in Liver ([1]; 1 hr) of the same molecule?
**A.** The Th-227 in Liver was 0.59% ID Th-227/g organ.

**Q.** What about the Th-227 in Spleen ([1]; 1 hr) of the same molecule?
**A.** The Th-227 in Spleen was 1.09% ID Th-227/g organ.

**Q.** And the Th-227 in Tumor ([1]; 1 hr)?
**A.** The Th-227 in Tumor was 1.16% ID Th-227/g organ.

**Q.** What about the Th-227 in bone ([1]; 1 hr) of the same molecule?
**A.** The Th-227 in bone was 0.99% ID Th-227/g organ.

**Q.** And the Th-227 in kidney ([1]; 1 hr)?
**A.** Its Th-227 in kidney is 4.11% ID Th-227/g organ.

**Q.** And the “Th-227 in large intestine” value ([1]; 1 hr)?
**A.** The value was 0.18% ID Th-227/g organ.

**Q.** And the Th-227 in lung ([1]; 1 hr)?
**A.** The Th-227 in lung was 0.98% ID Th-227/g organ.

**Q.** And the Th-227 in muscle ([1]; 1 hr)?
**A.** The Th-227 in muscle was 0.24% ID Th-227/g organ.

**Q.** And the Th-227 in prostate ([1]; 1 hr)?
**A.** The Th-227 in prostate was 2.87% ID Th-227/g organ.

**Q.** What about the “Th-227 in salivary glands” value ([1]; 1 hr) of the same molecule?
**A.** The value was 0.52% ID Th-227/g organ.

**Q.** What about the “Th-227 in small intestine” value ([1]; 1 hr) of the same molecule?
**A.** Its value is 0.26% ID Th-227/g organ.

**Q.** And the Th-227 in Blood ([1]; 4 hr)?
**A.** The Th-227 in Blood was 0.20% ID Th-227/g organ.

**Q.** What about the Th-227 in Liver ([1]; 4 hr) of the same molecule?
**A.** Its Th-227 in Liver is 0.43% ID Th-227/g organ.

**Q.** And the Th-227 in Spleen ([1]; 4 hr)?
**A.** Its Th-227 in Spleen is 0.34% ID Th-227/g organ.

**Q.** What about the Th-227 in Tumor ([1]; 4 hr) of the same molecule?
**A.** The Th-227 in Tumor was 1.59% ID Th-227/g organ.

**Q.** And the Th-227 in bone ([1]; 4 hr)?
**A.** Its Th-227 in bone is 1.68% ID Th-227/g organ.

**Q.** What about the Th-227 in brain ([1]; 4 hr) of the same molecule?
**A.** Its Th-227 in brain is 0.01% ID Th-227/g organ.

**Q.** What about the Th-227 in kidney ([1]; 4 hr) of the same molecule?
**A.** Its Th-227 in kidney is 2.97% ID Th-227/g organ.

**Q.** What about the “Th-227 in large intestine” value ([1]; 4 hr) of the same molecule?
**A.** Its value is 0.17% ID Th-227/g organ.

**Q.** And the Th-227 in lung ([1]; 4 hr)?
**A.** Its Th-227 in lung is 0.43% ID Th-227/g organ.

**Q.** What about the Th-227 in muscle ([1]; 4 hr) of the same molecule?
**A.** Its Th-227 in muscle is 0.05% ID Th-227/g organ.

**Q.** What about the “Th-227 in salivary glands” value ([1]; 4 hr) of the same molecule?
**A.** Its value is 0.30% ID Th-227/g organ.

**Q.** What about the “Th-227 in small intestine” value ([1]; 4 hr) of the same molecule?
**A.** The value was 0.17% ID Th-227/g organ.

**Q.** What about the Th-227 in Liver ([1]; 24 h) of the same molecule?
**A.** The Th-227 in Liver was 0.31% ID Th-227/g organ.

**Q.** What about the Th-227 in Spleen ([1]; 24 h) of the same molecule?
**A.** The Th-227 in Spleen was 0.23% ID Th-227/g organ.

**Q.** And the Th-227 in Tumor ([1]; 24 h)?
**A.** Its Th-227 in Tumor is 0.95% ID Th-227/g organ.

**Q.** What about the Th-227 in bone ([1]; 24 h) of the same molecule?
**A.** The Th-227 in bone was 1.29% ID Th-227/g organ.

**Q.** What about the Th-227 in kidney ([1]; 24 h) of the same molecule?
**A.** The Th-227 in kidney was 0.83% ID Th-227/g organ.

**Q.** What about the “Th-227 in large intestine” value ([1]; 24 h) of the same molecule?
**A.** The value was 0.07% ID Th-227/g organ.

**Q.** What about the Th-227 in lung ([1]; 24 h) of the same molecule?
**A.** Its Th-227 in lung is 0.16% ID Th-227/g organ.

**Q.** What about the Th-227 in muscle ([1]; 24 h) of the same molecule?
**A.** The Th-227 in muscle was 0.00% ID Th-227/g organ.

**Q.** What about the “Th-227 in salivary glands” value ([1]; 24 h) of the same molecule?
**A.** Its value is 0.09% ID Th-227/g organ.

**Q.** What about the “Th-227 in small intestine” value ([1]; 24 h) of the same molecule?
**A.** The value was 0.08% ID Th-227/g organ.

**Q.** And the Th-227 in Liver ([1]; 96 h)?
**A.** Its Th-227 in Liver is 0.31% ID Th-227/g organ.

**Q.** And the Th-227 in Spleen ([1]; 96 h)?
**A.** Its Th-227 in Spleen is 0.29% ID Th-227/g organ.

**Q.** And the Th-227 in Tumor ([1]; 96 h)?
**A.** Its Th-227 in Tumor is 1.05% ID Th-227/g organ.

**Q.** And the Th-227 in bone ([1]; 96 h)?
**A.** The Th-227 in bone was 2.88% ID Th-227/g organ.

**Q.** And the Th-227 in kidney ([1]; 96 h)?
**A.** The Th-227 in kidney was 0.37% ID Th-227/g organ.

**Q.** And the Th-227 in lung ([1]; 96 h)?
**A.** Its Th-227 in lung is 0.14% ID Th-227/g organ.

**Q.** And the Th-227 in muscle ([1]; 96 h)?
**A.** The Th-227 in muscle was 0.00% ID Th-227/g organ.

**Q.** What about the “Th-227 in salivary glands” value ([1]; 96 h) of the same molecule?
**A.** Its value is 0.13% ID Th-227/g organ.

**Q.** And the “Th-227 in small intestine” value ([1]; 96 h)?
**A.** Its value is 0.06% ID Th-227/g organ.

**Q.** And the T/Carea ([2]; Example IV, day 36 after start of therapy, once 1 MBq/kg)?
**A.** Its T/Carea is 0.81.

**Q.** And the T/Carea ([2]; Example V, day 27 after start of therapy, once 750 kBq/kg)?
**A.** Its T/Carea is 0.91.
